The results in this text go back to patent EP4778931A1, “ULK1 INHIBITOR, PREPARATION METHOD THEREFOR AND USE THEREOF” (Dovetree Medicines Unus, Inc., priority 2023, dated 2025).

The assay deals with ATG13 phosphorylation level in MIA PaCa-2 cells. Put plainly: Inhibition of ATG13 phosphorylation level in MIA PaCa-2 cells (Phospho-Atg13 (ser355) ELISA). Conditions: Homo sapiens, Torin1 100 nM, 24 h incubation, 8 concentrations, highest 10 µM, read-out: pATG13 ELISA IC50. The assay is classed as cell-based. As to the method:
The inhibitory effect of the compound of the present disclosure on ULK1 was evaluated by testing the inhibitory effect of the compound of the present disclosure on ATG13 phosphorylation level in MIA PaCa-2 cells.
MIA PaCa-2 cells (ATCC, CRM-CRL-1420) were cultured in a complete medium, namely, a DMEM medium (Gibco, 11965-092) containing 10% fetal bovine serum (Corning, 35-081-CV), 2.5% horse serum (Gibco, 16050-122) and 1% double antibody (Gibco, 15140-122). The experiments were performed according to the requirements of the kit (Cell Signaling Technology, 17208C).
Cell plating: MIA PaCa-2 at 80% growth confluence were digested, diluted with the complete medium, and added to a 96-well cell culture plate (Costar, 3596) at 20,000 cells per well, with a volume of 90 µL.
Compound incubation: 5 µL of Torin1 and 5 µL of a serially diluted compound were added to each well so that the highest concentration of the compound in the reaction system was 10 µM. 5-fold serial dilution with 8 concentrations was performed, and the final concentration of Torin1 was 100 nM. The DMSO content in the system was 0.1%. The reaction plate was placed in an incubator at 37°C in 5% CO2, and was incubated for 24 h. 10 µL of Torin1 was added to the negative control wells (NC) to a final concentration of 100 nM, with a DMSO content of 0.1%.
Reaction detection: After the incubation was completed, the cell plate was washed with a pre-cooled DPBS (Corning, 21-031-CVC) to wash away the compound and medium. 50 µL of pre-cooled cell lysis solution was added to each well, incubated on ice for 10 min. The cell plate was centrifuged, and the supernatant was transfered to an ELISA reaction plate. Simultaneously, 50 µL of Phospho-Atg13 (ser355) rabbit detection antibody was added, followed by incubation at room temperature under shaking for 60 min. After the incubation was completed, the reaction plate was washed with a washing solution for 4 times. 100 µL of TMB substrate was added for color development reaction, followed by incubation under shaded conditions with shaking for 15 min. Finally, 100 µL of stop solution was added to each well. The reaction was terminated by shaking for 10 s, and the absorbance value at 450 nm and 560 nm were collected within 10 min using Envision (Perkin Elmer, EnVision 2105).
The inhibition ratio was calculated by subtracting the absorbance value at […] from the absorbance value at 450 nm for each well. The inhibition ratio formula is as follows: [formula]
The dose-effect curve was fitted using the log (inhibitor) vs. response -Variable slope of Graphpad Prism8, thereby affording the IC50 value of each compound for inhibiting ATG13 phosphorylation level.
On the technique in general: ELISA stands for enzyme-linked immunosorbent assay.
One may read the IC50 as the point on the concentration scale where inhibition reaches its midpoint. Turning to `CN1CCN2c3ccc(Nc4ncc(C(F)(F)F)c(N5CCN(C)C(=O)C5)n4)cc3COCC2C1` (centres unmarked) [Compound 1], the IC50 is greater than 1000 nM.

`CN1CCN2c3ccc(Nc4ncc(C(F)(F)F)c(N5CCC6(CCN(C)C6)CC5)n4)cc3COCC2C1` (centres unmarked) [Compound 2]: the IC50 is greater than 1000 nM. Take `CN1CCN2c3ccc(Nc4ncc(C(F)(F)F)c(OCCCN5CCCCC5=O)n4)cc3COCC2C1` (centres unmarked) [Compound 3]: the IC50 was in the range of 100 to 1000 nM. To `CN1CCN2c3ccc(Nc4ncc(C(F)(F)F)c(N5CCC(n6cccn6)CC5)n4)cc3COCC2C1` (centres unmarked) [Compound 4] belongs greater than 1000 nM. As for `CN1CCN2c3ccc(Nc4ncc(C(F)(F)F)c(N5CCC6(CCN(C)C6)C5)n4)cc3COCC2C1` (centres unmarked) [Compound 5], the figure is 100 to 1000 nM; as for `CN1CCN2c3ccc(Nc4ncc(C(F)(F)F)c(N[C@H]5CC[C@@H](n6cccn6)CC5)n4)cc3COCC2C1` (some centres unmarked) [Compound 6], 100 to 1000 nM. Regarding `CN1CCN2c3ccc(Nc4ncc(C(F)(F)F)c(NCCCn5cccn5)n4)cc3COCC2C1` (centres unmarked) [Compound 8], the IC50 was greater than 1000 nM. Regarding `CN1CCN2c3ccc(Nc4ncc(C(F)(F)F)c(OCCCc5ccccc5C#N)n4)cc3COCC2C1` (centres unmarked) [Compound 9], the IC50 lay in the range of 100 to 1000 nM. To `CN1CCN2c3ccc(Nc4ncc(C(F)(F)F)c(NCCCN5CCCCC5=O)n4)cc3COCC2C1` (centres unmarked) [Compound 11] belongs less than 100 nM. As for `CN1CCN2c3ccc(Nc4ncc(C(F)(F)F)c(OCCCN5CCCCC5=O)n4)cc3OCC2C1` (centres unmarked) [Compound 12], the figure is 100 to 1000 nM. As for `CN1CCN2c3ccc(Nc4ncc(C(F)(F)F)c(N5CC6(CCN(C)C6)C5)n4)cc3COCC2C1` (centres unmarked) [Compound 20], the figure is 100 to 1000 nM; as for `CN1CCN2c3ccc(Nc4ncc(C(F)(F)F)c(NC5CCN(C(=O)C6CCC6)CC5)n4)cc3COCC2C1` (centres unmarked) [Compound 21], greater than 1000 nM. For `CN1CCN2c3ccc(Nc4ncc(C(F)(F)F)c(N5CC6(CN(C)C6)C5)n4)cc3COCC2C1` (centres unmarked) [Compound 22], the IC50 lay in the range of 100 to 1000 nM. As for `CN1CCN2c3ccc(Nc4ncc(C(F)(F)F)c(OCCCn5cccn5)n4)cc3COCC2C1` (centres unmarked) [Compound 23], the figure is greater than 1000 nM.
